Experimental data from PubChem BioAssay (NCI).
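Compound exposure: 48 hours, 5 concentrations, 96-well plates. TGI marks complete inhibition of growth.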

Experiments:
Assay in all cases: NCI anticancer screen, dose series, 48 h
HOP-92 NSCLC = test system: HOP-92 NSCLC
HCT-15 colon = test system: HCT-15 colon
UO-31 renal = test system: UO-31 renal
SF-295 CNS = test system: SF-295 CNS
SF-539 CNS = test system: SF-539 CNS
HCC-2998 colon = test system: HCC-2998 colon
PC-3 prostate = test system: PC-3 prostate
CAKI-1 renal = test system: CAKI-1 renal
OVCAR-4 ovarian = test system: OVCAR-4 ovarian
NCI-H226 lung = test system: NCI-H226 lung
786-0 renal = test system: 786-0 renal
U251 CNS = test system: U251 CNS
SK-MEL-28 melanoma = test system: SK-MEL-28 melanoma
MDA-N = test system: MDA-N
M14 melanoma = test system: M14 melanoma
MDA-MB-231 breast = test system: MDA-MB-231 breast
K-562 leukemia = test system: K-562 leukemia
SN12C renal = test system: SN12C renal

Row | SMILES | TGI (HOP-92 NSCLC) [µM] | TGI (HCT-15 colon) [µM] | TGI (UO-31 renal) [µM] | TGI (SF-295 CNS) [µM] | TGI (SF-539 CNS) [µM] | TGI (HCC-2998 colon) [µM] | TGI (PC-3 prostate) [µM] | TGI (CAKI-1 renal) [µM] | TGI (OVCAR-4 ovarian) [µM] | TGI (NCI-H226 lung) [µM] | TGI (786-0 renal) [µM] | TGI (U251 CNS) [µM] | TGI (SK-MEL-28 melanoma) [µM] | TGI (MDA-N) [µM] | TGI (M14 melanoma) [µM] | TGI (MDA-MB-231 breast) [µM] | TGI (K-562 leukemia) [µM] | TGI (SN12C renal) [µM]
1 | CCOC(=O)CCc1c(C)[nH]c2c(C)c3c([nH]c4ccc(Cl)cc43)c(C)c2c1=O | 67.1 | 54.5 | 40.6 | 22.1 | 28.7 | 30.5 | > 100 | 49.5 | 41.4 | 46.5 | 20.5 | 43.4 | 46.1 | > 100 | 18.5 | 34.2 | – | –
2 | CC(C)(C)OC(=O)N/N=C(/N)c1ccccc1 | – | > 100 | > 100 | > 100 | > 100 | > 100 | > 100 | > 100 | > 100 | > 100 | > 100 | > 100 | > 100 | > 100 | > 100 | > 100 | > 100 | > 100
3 | NCCc1ccc2c(c1)C(=O)c1c(O)ccc(O)c1C2=O | > 100 | > 100 | 25.7 | > 74.9 | 7.97 | > 100 | 26.1 | > 84.3 | > 100 | > 100 | 8.59 | > 30.9 | – | > 100 | > 100 | > 27.8 | > 64.2 | –
4 | COc1cccc(-c2cc(=O)c3cccnc3[nH]2)c1 | > 100 | > 100 | > 100 | > 100 | 0.538 | – | > 100 | > 100 | > 100 | – | > 100 | > 100 | > 100 | 0.0394 | > 100 | > 100 | > 100 | > 100
5 | COc1ccc2c(c1)CC[C@@H]1[C@@H]2CC[C@]2(C)[C@@H](O)/C(=C/c3ccncc3)C[C@@H]12 | 28 | 23.6 | 31.5 | 29.4 | – | 23.6 | 25.5 | 34.2 | > 100 | 44.7 | 31.7 | 25.1 | 35.5 | 33.2 | 30.4 | 32.6 | – | 61.3
6 | CC1(C)S[C@@H]2[C@H](NC(=O)/C=C/c3ccccc3)C(=O)N2[C@H]1C(=O)O | > 100 | > 100 | > 100 | > 100 | > 100 | > 100 | > 100 | > 100 | > 100 | > 100 | > 100 | > 100 | > 100 | > 100 | > 100 | > 100 | – | > 100
7 | CCOC(=O)CC(N1CC1)N1CC1 | – | > 10 | > 10 | > 10 | > 10 | > 10 | > 10 | > 10 | > 10 | > 10 | > 10 | > 10 | > 10 | > 10 | > 10 | > 10 | > 10 | > 10
8 | COC(=O)/C(=C\C(=O)c1ccc(Br)cc1)NN=C(c1ccccc1)c1ccccc1 | > 10 | > 10 | – | > 10 | – | > 10 | > 10 | > 10 | > 10 | – | > 10 | – | > 10 | > 10 | > 10 | > 10 | > 10 | > 10
9 | CCOC(=O)C(Cc1cn(S(=O)(=O)c2ccc(C)cc2)cn1)P(=O)(OCC)OCC (stereo not given) | – | > 100 | > 100 | > 100 | > 100 | > 100 | > 100 | > 100 | > 100 | > 100 | > 100 | > 100 | > 100 | > 100 | > 100 | > 100 | > 100 | > 100
10 | CC(=O)NNc1nc(C)c(C(/C=C/c2ccc(NC(C)=O)cc2)=N/NS(=O)(=O)c2ccc(C)cc2)s1 | > 100 | > 100 | > 100 | > 100 | > 100 | > 100 | > 100 | > 100 | > 100 | > 100 | > 100 | > 100 | > 100 | > 100 | > 100 | > 100 | – | > 100
11 | O=C(NC/C(Cl)=C/Cl)Nc1cccc2c1CCCC2 | > 100 | > 100 | > 100 | > 100 | > 100 | > 100 | > 100 | > 100 | > 100 | > 100 | > 100 | > 100 | > 100 | > 100 | > 100 | > 100 | – | > 100
12 | CN(CC#N)C(=O)Cc1ccc([N+](=O)[O-])cc1 | – | > 10 | > 10 | > 10 | > 10 | > 10 | > 10 | > 10 | > 10 | > 10 | > 10 | > 10 | > 10 | > 10 | > 10 | > 10 | > 10 | > 10
13 | COP(=O)(C(/C=C/c1ccccc1)OC(C)=O)[C@@H]1CCCC[C@H]1N(CC(C)(C)C)C(C)=O (stereo not given in full) | – | 61.6 | 27.9 | 39.9 | 33.4 | 28.2 | 37.4 | 92.6 | 33.1 | 27 | 35.8 | 31.7 | 53.1 | 36.7 | 28.8 | 31.6 | 53 | 30.2
14 | CC1C(=O)C23OC[C@@]1(C)C1(O)CC[C@@H](C)[C@]21CC3=O (stereo not given in full) | – | > 100 | > 100 | > 100 | > 100 | > 100 | > 100 | – | > 100 | > 100 | > 100 | > 100 | > 100 | > 100 | > 100 | > 100 | > 100 | > 100
15 | COc1ccccc1OC(=O)/C=C/c1ccccc1 | > 100 | > 100 | > 100 | > 100 | > 100 | > 100 | > 100 | > 100 | > 100 | > 100 | > 100 | > 100 | > 100 | > 100 | > 100 | > 100 | – | > 100
16 | CCCCOc1ccc(S(=O)(=O)/N=C(\NN)Nc2ccc(Cl)cc2)cc1 | 67.2 | > 100 | 37.5 | 67.7 | 36.7 | – | 33.1 | 48.1 | 45.3 | > 100 | 31 | 30.2 | > 100 | > 100 | 56.9 | 46.3 | > 100 | 38.6
17 | CCOC(=O)CCC(NC(=O)c1ccc(Oc2nc3ccccc3nc2C(=O)OCC)cc1)C(=O)OCC (stereo not given) | > 100 | > 100 | > 100 | > 100 | > 100 | > 100 | > 100 | > 100 | > 100 | – | > 100 | > 100 | > 100 | > 100 | > 100 | 95.9 | – | > 100
18 | COc1ccc(Nc2nc3ccccc3nc2C(=O)O)cc1 | > 100 | > 100 | > 100 | > 100 | > 100 | 23.1 | > 100 | > 100 | > 100 | – | > 100 | > 100 | > 100 | > 100 | > 100 | > 100 | > 100 | > 100
19 | CC(C)(C)c1cc(C(C)(C)C)c2sc(=S)oc2c1O | 28.9 | 17.8 | 16.2 | 23.5 | 11.1 | – | 13.8 | 18.6 | 26.2 | 34.2 | 22.6 | 18.7 | 27.6 | 19.8 | 32.4 | 26.7 | 32.9 | 19.7
20 | CC1CC(NN(C)C)C2(C(N)=O)C(N)=NC(=O)C12C#N (stereo not given) | > 100 | > 100 | > 100 | > 100 | > 100 | > 100 | > 100 | > 100 | – | > 100 | > 100 | > 100 | > 100 | > 100 | > 100 | > 100 | > 100 | > 100
21 | COC(=O)CCc1ccc2c(c1)CC1(C2)Cc2ccc3c(c2C1)CCC3 (stereo not given) | > 100 | > 100 | 67.5 | > 100 | > 100 | > 100 | > 100 | – | > 100 | > 100 | > 100 | > 100 | > 100 | > 100 | > 100 | > 100 | > 100 | > 100
22 | O=C(CCO)OCCCCCC/C=C\CCCCCC/C=C\CCCCCCCCOC(=O)CCO | 32.5 | 29.1 | 32.6 | 35.5 | > 100 | 30.1 | 30.8 | 39.3 | 55.9 | – | 32.5 | 30.3 | 37.5 | 33.2 | 30.9 | 32.5 | 30.4 | 31
